This is an account of results in patent US11401516B2, “Channel modulators” (AUCKLAND UNISERVICES LIMITED, priority 2014, dated 2022).

The target of data set [1] is T1, hemichannel activity in HCMVEC cells (Homo sapiens, UniProt P17302).
T1 construct: isolated human cerebral microvascular endothelial cells (hCMVEC); endogenous in cells; host or cells: hCMVEC
Description: Whole-cell voltage clamp, hCMVEC cells. Format: cell-based. To be noted: for hemichannel activity: 50 μM. The method, then:
Whole-cell voltage clamp studies were conducted on connexin deficient HeLa cells, Connexin43 transfected HeLa cells and isolated human cerebral microvascular endothelial cells (hCMVEC).
HCMVEC Cells were placed into an extracellular artificial cerebral spinal fluid solution containing (in mM): 144 NaCl, 3.3 KCl, 1.8 CaCl2, 1.8 MgCl2, 10 mM glucose, pH: 7.385 at temperature 37° C. The intracellular pipette solution contained (in mM): 130 KCl, 10 sodium aspartate, 0.26 CaCl2, 2 EGTA, 5 tetraethylammonium-Cl, 1 MgCl2,3 MgATP, 5 Hepes at pH 7.2; and was kept on ice to prevent MgATP breakdown. Pipette resistance was 3.4MΩ with seal resistance=1.3 GΩ. Voltage and perfusion protocols are conducted simultaneously, with cells continuously perfused. Recordings for analysis were taken before Tonabersat perfusion, during and after washout. For channel block studies, 50 μM Tonabersat was washed in for three mins prior to recording, and subsequently washed out three mins before taking the washout recordings.

Data set [2] concerns hCMVEC cells. In words: MTT assay for cell viability. To be noted: 200 μM, 24-hour treatment. Format: cell-based, human. The procedure: Stock MTT was prepared by dissolving 5 mg in 1 mL PBS producing a concentration of 5 mg/mL. After the treatment incubation period of cells seeded in a 96 well-plate (at 1×10^4 cells/well) the media was removed and replaced with 100 μL of PBS. 10 μL of MTT stock solution was added to each well, except for those that were used as a blank, and left to incubate at 37° C. for 4 hours at which time the solutions was aspirated from each well. Then 50 μL DMSO (Sigma) was added to each well to dissolve the crystalline product. Viability was determined by measuring the absorbance of the purple crystal produced. This was measured by reading the absorbance at 595 nm in a plate reader; the data was standardized to each control as an internal standard. Statistically was investigated using One-way ANOVA and Tukey's post hoc test where *p<0.05.

In data set [3] the test system is hCMVEC cells. Description: Scrape load assay (Lucifer yellow dye transfer). The format is cell-based, human. The method, then:
In the below Examples 2, 4, 5, 8 and 10 using human cerebral microvascular endothelial cells (hCMVEC), cells were prepared by growing them in collagen coated (30 μg/mL) T25 or T75 flasks maintained in Medium M199 supplemented with 10% FCS, 1 μg/mL hydrocortisone, 3 ng/mL hFGF, 1 ng/mL hEGF, 10 μg/mL heparin, 1× penicillin streptomycin neomycin (Life Technologies), and cAMP (100 μL 100% cAMP to 100 mL media). Cells were maintained at 37° C. with 95% O2 and 5% CO2.
In this Example, human cerebral microvascular endothelial cells (hCMVEC) were grown in collagen coated (1 μg/mL) T25 flasks maintained in Medium M199 supplemented with 10% FBS, 1 μg/mL hydrocortisone, 3 ng/mL hFGF, 1 ng/mL hEGF, 10 μg/mL heparin and cAMP (100 μL 100% cAMP to 100 mL media) in a humidified atmosphere at 37° C. with 5% CO2. One day prior to experimentation, these cells were trypsinized and plated at a density of 4×10^5 cells/well in a collagen-coated 12 well-plate in the same medium. For treatments, cells were cultured in the presence of peptide5, a control gap junction channel blocker (carbenoxolone), or tonabersat for the respective time intervals prior to scrape dye loading. The blockers were also present in the respective scrape loading solutions.
For scrape loading the hCMVEC cells were washed three times with phosphate buffered saline (PBS) (without divalent cations). A solution of PBS+0.05% lucifer yellow was added to cells. The cells then received a scrape to the monolayer using a size 10 carbon steel surgical blade and incubated in the dark at 37° C. with 5% CO2 for 5 minutes. The cells were washed with PBS four times and then 1 mL of PBS added for fluorescent microscopy.
The live cells were then imaged on a Nikon TE2000E fluorescent microscope whilst maintained in a chamber heated to 37° C. with 5% CO2. Three images pairs were obtained at 10× magnification for each of a phase contrast image to view total cells and a fluorescent image to visualize Lucifer yellow using 488 nm excitation and a GFP filter block. Gap junctional communication was determined by counting the number of Lucifer yellow positive cells and presented as a percentage to the positive cells of the control group. Data was graphed as mean+standard error of the mean using Prism v5.02 software. Significance was determined through students two-tailed, unpaired, T Tests. *=p<0.05, **=[…], ***=p<0.001.
An in vitro scrape-loading assay with extracellular Lucifer Yellow (LY), a fluorescent dye that is transferred only through coupled GJs was performed to test whether Tonabersat inhibits GJ communication (M. H. el-Fouly, et al., Experimental cell research 168, 422 (February, 1987)). A single scrape wound was made to a confluent monolayer of hCMVEC cells to enable LY dye to gain access to the cytoplasm of cells at the edge of the wounded region and allow the dye to transfer to adjacent cells through GJs.

T1 sequence (P17302 2-382): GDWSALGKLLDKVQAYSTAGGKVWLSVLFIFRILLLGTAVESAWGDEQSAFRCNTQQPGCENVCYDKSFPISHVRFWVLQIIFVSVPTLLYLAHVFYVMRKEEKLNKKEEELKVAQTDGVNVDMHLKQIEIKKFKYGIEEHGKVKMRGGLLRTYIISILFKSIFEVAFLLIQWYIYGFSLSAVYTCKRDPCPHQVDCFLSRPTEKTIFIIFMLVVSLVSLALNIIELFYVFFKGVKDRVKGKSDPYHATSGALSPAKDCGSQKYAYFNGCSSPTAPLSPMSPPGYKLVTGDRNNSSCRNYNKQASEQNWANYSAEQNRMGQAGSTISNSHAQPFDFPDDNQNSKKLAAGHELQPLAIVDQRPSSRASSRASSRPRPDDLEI

For `CC(=O)c1ccc2c(c1)[C@H](NC(=O)c1ccc(F)c(Cl)c1)[C@H](O)C(C)(C)O2` [Tonabersat, N-[(3S,4S)-6-acetyl-3-hydroxy-2,2-dimethyl-3,4-dihydrochromen-4-yl]-3-chloro-4-fluorobenzamide], the “time to block connexin hemichannels” value in data set [1] was “within one minute”. In addition, the hemichannel activity result is “some activity returning after washout” in data set [1] (after three minutes of washout) and “almost completely abolishes hemichannel activity” in data set [1] (during incubation). For the same molecule, the cell viability entry in data set [2] is on record as “did not significantly reduce cell viability”. Moreover, the “concentration at which GJs are uncoupled” value in data set [3] was no less than 50 µM. The “time to gap junction uncoupling effect” value in data set [3] (50 μM) is no more than 1 min. Moreover, the “gap junction uncoupling (LY dye transfer)” value in data set [3] (50 μM added immediately) is on record as “did not significantly reduce GJ coupling”; in data set [3] (50 μM added immediately, listed as tonabersat), “statistically significant gap junction uncoupling effect”; in data set [3] (50 μM, 1 hour prior to the assay), “did not significantly reduce GJ coupling”. Further, the “LY positive cells compared to control” value in data set [3] (50 μM, 2 hours) is 72.5±7.4%; in data set [3] (50 μM, 6 hours) it was 62.8±7.4%; in data set [3] (50 μM, 24 hours), 50.5±8.4%; in data set [3] (100 μM) it was 46.7±7.8%; in data set [3] (0.1, 1 and 10 μM, 2 hours), “no significant reduction in LY positive cells”; in data set [3] (0.1, 1 and 10 μM, 24 hours), “no significant reduction in LY positive cells”.
